Values of other authors as cited in patent US12390475B2, “Dry powder treprostinil for the treatment of pulmonary hypertension” (priority 2016, dated 2025).
Like-named read-outs stand apart in the source and are kept apart here.

How the values were obtained:
[1] = aqueous titration with 20% ethanol as a co-solvent
[2] = various buffer solutions at various pH levels, octanol

| SMILES | solubility (in acetone) | solubility (in acetonitrile) | solubility (in ethanol) | solubility (in ethyl acetate) | solubility (in n-hexane) | solubility (in water) | solubility (unbuffered water and low pH buffers) | pKa [1] | distribution coefficient [2] |
| --- | --- | --- | --- | --- | --- | --- | --- | --- | --- |
| CCCCC[C@H](O)CC[C@@H]1[C@H]2Cc3cccc(OCC(=O)[O-])c3C[C@H]2C[C@H]1O.[Na+] [Treprostinil sodium] | very slightly soluble | practically insoluble | very soluble | practically insoluble | practically insoluble | very soluble | – | – | – |
| CCCCC[C@H](O)CC[C@@H]1[C@H]2Cc3cccc(OCC(=O)O)c3C[C@H]2C[C@H]1O [Treprostinil, 2-[[(1R,2R,3aS,9aS)-2-hydroxy-1-[(3S)-3-hydroxyoctyl]-2,3,3a,4,9,9a-hexahydro-1H-cyclopenta[g]naphthalen-5-yl]oxy]acetic acid] | – | – | – | – | – | – | poorly soluble | 4.5 | distribution into octanol layers at all pH levels |
